Converted amounts (≈) assume the structure as drawn. Where two headings read alike, the source gives them in different places.
Tests used:
enteroviruses = test: microbe, parasite or virus in culture; assay type: cell-based; details: Enterovirus, read-out: MIC80
coxsackie virus A-9 = test: in vivo efficacy in coxsackie virus A-9 mouse infection model
[1] = blood plasma concentration in dogs after oral administration; assay type: in vivo; details: dog, beagle dogs, fasted, oral 25 mg/kg in corn oil, up to six hours
Description: The blood plasma concentrations of the compounds of the invention were measured in beagle dogs by the following procedure: Animals ranging in weight from 8.5 to 11.5 kg were fasted overnight prior to oral administration of 25 mg/kg of the test compound dissolved in corn oil (125 mg/ml) and contained in gelatin capsules. Blood samples were collected at selected time intervals up to six hours post-medication and analyzed by standard chromatographic procedures to determine the mean maximum concentration of the test compound in micrograms per milliliter [Mean Cmax, μg/ml].

Polio 2 = test: microbe, parasite or virus in culture; assay type: cell-based, poliovirus; details: Enterovirus C, HeLa, read-out: Polio 2 MIC
echovirus-9 = test: in vivo efficacy in echovirus-9 mouse infection model
[2] = tested on: poliovirus, type 2, MEF strain; test: animal or person; assay type: in vivo, white Swiss mice; details: Enterovirus C, in Mus musculus, po, 336 h, read-out: Survivors Day 14 Post Infection
[3] = tested on: human rhinovirus (HRV) serotypes; test: microbe, parasite or virus in culture; assay type: cell-based; details: for MIC50: read-out: Rhinovirus MIC50

Compound	IC (MIC80 of serotype panel) (enteroviruses)	ED50 (coxsackie virus A-9; Mus musculus, po, read-out: PD50)	oral activity in coxsackie virus A-9 infections (coxsackie virus A-9; mouse infection model, oral)	Cmax [1]	MIC (Polio 2)	oral activity in echovirus-9 infections (echovirus-9)	responders at 50 mg/kg [2]	responders at 100 mg/kg [2]	responders at 200 mg/kg [2]	IC (MIC80 of serotype panel) ([3]; read-out: MIC80)	MIC50 [3]	IC (MIC80 of serotype panel) ([3]; read-out: Rhinovirus MIC80)	responders at 25 mg/kg [2]	responders at 77 mg/kg [2]
Cc1cc(CCCCCOc2c(Cl)cc(C3=NCCO3)cc2Cl)on1 [5-{5-[2,6-Dichloro-4-(4,5-dihydro-2-oxazolyl)phenoxyl]-pentyl}-3-methylisoxazole]	1.6 µg/mL	2.5 mg/kg	potent oral activity	1570 ± 350 ng/mL	0.59 µg/mL (≈ 1.54 µM)	potent oral activity	10%	25%	30%	0.23 µg/mL	0.07 µg/mL (≈ 0.183 µM)	0.126 µg/mL	–	–
Cc1cc(CCCCCCCOc2ccc(C3=NCCO3)cc2Cl)on1 [13(c), 5-{7-[2-Chloro-4-(4,5-dihydro-2-oxazolyl)phenoxy]heptyl}-3-methylisoxazole]	–	–	–	–	0.17 µg/mL (≈ 0.451 µM)	–	61.1%	80%	–	–	0.34 µg/mL (≈ 0.902 µM)	1.06 µg/mL	20%	–
Cc1cc(CCCCCOc2ccc(C3=NCCO3)cc2Cl)on1 [15(b), 5-{5-[2-Chloro-4-(4,5-dihydro-2-oxazolyl)phenoxy]pentyl}-3-methylisoxazole]	–	–	–	–	0.12 µg/mL (≈ 0.344 µM)	–	40%	60%	–	–	0.08 µg/mL (≈ 0.229 µM)	0.35 µg/mL	–	–
Cc1cc(CCCCCOc2c(Cl)cc(-c3nc(C)c(C)o3)cc2Cl)on1 [119(c), 5-{5-[2,6-Dichloro-4-(4,5-dimethyl-2-oxazolyl)phenoxy]pentyl}-3-methylisoxazole]	–	–	–	2130 ± 480 ng/mL	–	–	–	–	–	–	0.32 µg/mL (≈ 0.782 µM)	0.53 µg/mL	–	–
Cc1cc(CCCCCCCOc2ccc(C3=NCCO3)cc2)on1 [Example 1(c), 5-{7-[4-(4,5-Dihydro-2-oxazolyl)phenoxy]heptyl}-3-methylisoxazole]	–	–	–	–	0.04 µg/mL (≈ 0.117 µM)	–	70%	90%	–	–	1.7 µg/mL (≈ 4.96 µM)	99 µg/mL	–	–
Cc1cc(CCCCCOc2ccc(C3=NCCO3)cc2)on1 [Example 2, 5-{5-[4-(4,5-Dihydro-2-oxazolyl)phenoxy]pentyl}-3-methylisoxazole]	–	–	–	–	0.6 µg/mL (≈ 1.91 µM)	–	–	–	–	–	0.38 µg/mL (≈ 1.21 µM)	2.2 µg/mL	–	85%
Cc1cc(CCCCCOc2c(C)cc(C3=NCCO3)cc2C)on1 [Example 58, 5-{5-[4-(4,5-Dihydro-2-oxazolyl)-2,6-dimethylphenoxy]pentyl}-3-methylisoxazole]	–	–	–	4260 ± 470 ng/mL	3.1 µg/mL (≈ 9.05 µM)	–	–	–	–	–	0.15 µg/mL (≈ 0.438 µM)	0.43 µg/mL	–	–
Cc1cc(CCCCCCOc2c(Cl)cc(C3=NCCO3)cc2Cl)on1 [Example 106, 5-{6-[2,6-Dichloro-4-(4,5-dihydro-2-oxazolyl)phenoxy]hexyl}-3-methylisoxazole]	–	–	–	1530 ± 150 ng/mL	0.58 µg/mL (≈ 1.46 µM)	–	–	–	–	–	0.18 µg/mL (≈ 0.453 µM)	0.41 µg/mL	–	–
Cc1cc(CCCCCOc2c(Cl)cc(C3=NC(C)CO3)cc2Cl)on1 (stereo not drawn) [Example 107, 5-{5-[2,6-Dichloro-4-(4,5-dihydro-4-methyl-2-oxazolyl)phenoxy]pentyl}-3-methylisoxazole]	–	–	–	1530 ± 140 ng/mL	4.6 µg/mL (≈ 11.6 µM)	–	–	–	–	–	0.12 µg/mL (≈ 0.302 µM)	0.37 µg/mL	–	–
Cc1cc(CCCCC(C)Oc2c(Cl)cc(C3=NCCO3)cc2Cl)on1 (stereo not drawn) [Example 109, 5-{5-[2,6-Dichloro-4-(4,5-dihydro-2-oxazolyl)phenoxy]hexyl}-3-methylisoxazole]	–	–	–	2110 ± 610 ng/mL	2.9 µg/mL (≈ 7.3 µM)	–	–	–	–	–	0.16 µg/mL (≈ 0.403 µM)	0.89 µg/mL	–	–

Source: patent US4843087A (priority 1986, dated 1989)
